“Also recorded” adds a separate entry of the source. Read-outs that look alike come from different tables or passages of the source. Peptide text beside a SMILES is read from it.
Key:
[1] = tested on: pituitary gonadotropes (LHRH receptors); test: Pharmacodynamics: serum FSH, LH and other pituitary hormones in patients; type: in vivo, human
Procedure: (§1) FSH and LH levels as well as testosterone in men and estradiol levels in women were obtained on Days 1, 8, 15 and 22 within 24 h prior to dosing. Testosterone and estradiol levels were measured on Day 1 only after Cycle 1 and at off study assessment. Blood was collected for circulating tumor cells (CTC) prior to dosing on Day 1 of the first cycle. Patients with positive CTC at baseline also had blood collected for CTC analysis prior to dosing on Day 1 of each subsequent cycle. Additional studies included plasma cortisol, adrenocorticotropin (ACTH), thyroxine (T4) and thyroid-stimulating hormone (TSH) and blood for tumor specific biomarker analysis (at investigator’s discretion), all obtained prior to Day 1 dosing with each cycle and at off study assessment. Samples for antidrug antibodies (ADA) were collected on Day 1 of Cycle 1 and then on Day 1 of every odd cycle.

[2] = tested on: advanced LHRH-receptor-expressing solid tumors; test: Antitumor activity by RECIST version 1.1, tumor biomarkers and CTC; type: in vivo, human
Procedure: A history and physical examination were conducted pre-study and before every cycle. A complete blood count, serum electrolytes and chemistries were evaluated pre-study and then weekly. Tumor response or progression was assessed by imaging studies at baseline and after every 2 cycles. RECIST version 1.1 criteria were used to assess response.
as §1

[3] = tested on: LHRH-receptor-positive human ovarian cancer cell line (OVCAR-3); set-up: method as in earlier work; conditions: mice implanted with OVCAR-3, three weekly doses; cited from earlier work
[4] = cited from earlier work; for histamine release (clinical signs: swelling, redness or raised areas): pre-clinical studies; for well tolerated dose (as high as): repeated dose, ref Esperance data on file
Procedure: Clinical signs of histamine release were eliminated in a female dog and lessened in a male dog when diphenhydramine was administered. Therefore, histamine release may cause IRDRs, but it remains unclear how EP-100 triggers IRDRs in humans and why the reaction is seen in skin only. Among patients experiencing IRDRs, hematolo ...

[5] = tested on: LHRH-receptor-positive cell lines; conditions: in vitro; cited from earlier work
From the text: (§2) A phase 2 clinical trial te ...

[6] = tested on: breast cancer model; conditions: in vivo breast cancer model; ref Esperance, data on file; cited from earlier work
From the text: as §2

## CC(C)C[C@H](NC(=O)CNC(=O)[C@H](Cc1ccc(O)cc1)NC(=O)[C@H](CO)NC(=O)[C@H](Cc1c[nH]c2ccccc12)NC(=O)[C@H](Cc1c[nH]cn1)NC(=O)[C@@H]1CCC(=O)N1)C(=O)N[C@@H](CCCNC(=N)N)C(=O)N1CCC[C@H]1C(=O)NCC(=O)N[C@@H](CCCCN)C(=O)N[C@@H](Cc1ccccc1)C(=O)N[C@@H](C)C(=O)N[C@@H](CCCCN)C(=O)N[C@@H](Cc1ccccc1)C(=O)N[C@@H](C)C(=O)N[C@@H](CCCCN)C(=O)N[C@@H](CCCCN)C(=O)N[C@@H](Cc1ccccc1)C(=O)N[C@@H](C)C(=O)N[C@@H](CCCCN)C(=O)N[C@@H](Cc1ccccc1)C(=O)N[C@@H](C)C(=O)N[C@@H](CCCCN)C(=O)N[C@@H](CCCCN)C(=O)N[C@@H](Cc1ccccc1)C(=O)N[C@@H](C)C(=O)N[C@@H](CCCCN)C(=O)O [EP-100] (HELM PEPTIDE1{[Glp].H.W.S.Y.G.L.R.P.G.K.F.A.K.F.A.K.K.F.A.K.F.A.K.K.F.A.K}$$$$V2.0; C-terminus assumed)
[1]; one breast cancer patient, dose level 7.8 mg/m^2, FSH 127–15 U/L
  reduction from baseline FSH: 88%
[1]; one breast cancer patient, dose level 7.8 mg/m^2, LH 24–1 U/L
  LH reduction: 96%
[1]; patients
  effect on other pituitary hormones (ACTH and TSH): not affected
[1]; second breast cancer patient, 11.7 mg/m^2, FSH 21–4 U/L
  FSH decrease: 81%
[1]; third breast cancer patient, 26 mg/m^2, FSH 27–4 U/L
  FSH decrease: 85%
[1]; third breast cancer patient, 26 mg/m^2, LH 27–1.3 U/L
  LH decrease: 95%
[1]; three patients of 37, dose levels 11.7 and 26 mg/m^2, all breast cancer
  patients with sustained decreases in LH and FSH: 8%
[2]; 37 patients, EP-100 single agent
  objective tumor responses (RECIST version 1.1): No complete or partial tumor responses; also recorded: No objective tumor responses
[2]; patients
  treatment-related change in tumor biomarkers (CA-125 or PSA) or CTC values: no treatment-related decreases
[2]; seven of 37 patients, EP-100 single agent
  clinical benefit: patients with stable disease for 16 weeks or longer: 19%
[3]
  in vivo activity: decreased CA-125 levels and tumor regression
[4]; beagle dogs
  histamine release (clinical signs: swelling, redness or raised areas): may trigger histamine release
[4]; mice
  histamine release (clinical signs: swelling, redness or raised areas): may trigger histamine release
  well tolerated dose (as high as): 2.0 mg/kg
[4]; dogs
  well tolerated dose (as high as): 2.0 mg/kg
[5]
  effect of combination with pgp substrates (doxorubicin, paclitaxel, vinorelbine, vincristine) and non-pgp substrates (cisplatinum, 5-fluorouracil): reversion of drug resistance and potentiation of toxicity
[6]
  tolerability of combination EP-100 with paclitaxel: well tolerated

Source: article PMC4000412, “Novel LHRH-receptor-targeted cytolytic peptide, EP-100: first-in-human phase I study in patients with advanced LHRH-receptor-expressing solid tumors” (Cancer Chemotherapy and Pharmacology, 2014)
